The text below walks through data of patent EP2108642A1, “JAK INHIBITOR” (Kyowa Hakko Kirin Co., Ltd., priority 2006, dated 2008).

Counter-ions that a name gives are not always drawn.

The target of test [1] is T1, human JAK2 (Homo sapiens, UniProt O60674).
T1 construct: a functional domain (826-1132 amino acids) of human JAK2
The experiment in a line: JAK2 enzyme inhibitory activity (time-resolved fluorescence kinase assay with biotinylated Lyn-substrate peptide). The conditions noted are these: at a concentration of 1 µmol/L; His-tagged JAK2 (826-1132 amino acids), 10 µmol/L ATP, 30°C, 60 minutes. The class given is biochemical. On the procedure: In order to measure the JAK2 enzyme inhibitory activity, the following process was employed. […] The relative activity (%) of the well containing the test compound was calculated by assuming the activity of the well of the enzyme to which 0.1% DMSO was added as 100% and the activity of the well to which no enzyme was added as 0%, and the difference between 100 and the obtained value was assumed to be the JAK2 inhibition ratio (%) of the test compound.

Test [2] has as its system human acute myeloid leukemia cell line (HEL92.1.7) having a JAK2 V617F mutation. Description: Cell growth inhibitory activity against human acute myeloid leukemia cell line (WST-1 assay). The settings on record: at a concentration of 10 µmol/L against HEL92.1.7, 72 hours culture. It counts as cell-based. As for the experimental part: Test Example 2: Cell growth inhibitory activity against human acute myeloid leukemia cell line
The cell growth inhibitory activity of test compound against a human acute myeloid leukemia cell line (HEL92.1.7) (ATCC No. TIB-180) having a JAK2 V617F mutation was measured according to the following process.
A Roswell Park Memorial Institute's Medium (RPMI) 1640 medium (GIBCO, catalog No. 11875-093) containing 10% fetal bovine serum (GIBCO, catalog No. 10437-028) was used to culture each cells. HEL92.1.7 cells controlled at 2. 5 × 10^4 cells/mL were inoculated into a TC MICROWELL 96U plate (Nalge Nunc, catalog No. 163320) at 80 µL per well, and were cultured at 37°C for 4 hours in a 5% carbon dioxide gas incubator. Then, 20 µL per well of DMSO solutions of test compounds adjusted to a final concentration of 10 µmol/L were added to the HEL92.1.7 cells, and the resulting mixtures were cultured again at 37°C for 72 hours in a 5% carbon dioxide gas incubator. Finally, 25 µL of WST-1 reagent {4-[3-(4-indophenyl)-2-(4-nitrophenyl)-2H-5-tetrazolio]-1,3-benz ene disulfonate sodium salt} (Roche Diagnostics K.K., catalog No. 1644807) diluted to 40% with the medium described above was added, and incubation was conducted at 37°C for 2 hours, followed by measuring absorbance at 450 nm (reference wavelength: 690 nm) with a microplate spectrophotometer SPECTRA max 340PC (Molecular Devices). As for the cell growth inhibition ratio, the relative activity (%) of the well containing a test compound was calculated by assuming the activity of the well in which […] a medium to which only DMSO was added as 0%, and then the difference between 100 and the obtained value was assumed as the growth inhibition ratio (%) of the test compound. The higher the value, the stronger the growth inhibition activity against the cells.
A general note: Tetrazolium dyes change colour on reduction, which living cells bring about.

T1 sequence (O60674 826-1132): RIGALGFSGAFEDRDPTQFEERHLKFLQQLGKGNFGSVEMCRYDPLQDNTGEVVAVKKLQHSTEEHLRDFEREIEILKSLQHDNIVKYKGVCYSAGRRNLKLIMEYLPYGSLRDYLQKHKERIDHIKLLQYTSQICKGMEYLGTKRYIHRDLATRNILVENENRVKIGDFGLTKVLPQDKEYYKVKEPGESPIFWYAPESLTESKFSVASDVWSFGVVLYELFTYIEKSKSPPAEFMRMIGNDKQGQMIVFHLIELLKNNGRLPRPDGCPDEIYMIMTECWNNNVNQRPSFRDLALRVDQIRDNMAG

With `O=C1NCc2c(C#CCCO)ccc(-c3cc4cc(CN5CCCCC5)ccc4[nH]3)c21` [Compound 320, 4-(4-Hydroxy-1-butynyl)-7-[1H-5-(piperidinomethyl)indol-2-yl]iso indolinone hydrochloride], the JAK2 inhibition ratio in test [1] is recorded as ≥ 50%. Moreover, the “cell growth inhibition ratio” value in test [2] is recorded as ≥ 50%.
In the case of `CC(C)Oc1cc2c(c(-c3ccc[nH]3)c1)C(=O)NC2` [Compound 571, 5-(2-Propyloxy)-7-(1H-pyrrol-2-yl)isoindolinone], the JAK2 inhibition ratio in test [1] is on record as ≥ 50%. The “cell growth inhibition ratio” value in test [2] is given as ≥ 50%.
With `O=C1NCc2c(-c3ccc(O)cc3)ccc(-c3cc4cc(CN5CCCCC5)ccc4[nH]3)c21` [Compound 305, 4-(4-Hydroxyphenyl)-7-[1H-5-(piperidinomethyl)indol-2-yl]isoindo linone hydrochloride], the JAK2 inhibition ratio in test [1] was ≥ 50%. For the same molecule, the “cell growth inhibition ratio” value in test [2] was ≥ 50%.
Turning to `CC(C)Oc1cc2c(c(-c3cc4cc(CN5CCCCC5)ccc4[nH]3)c1)C(=O)NC2` [Compound 484, 5-(2-Propyloxy)-7-[1H-5-(piperidinomethyl)indol-2-yl]isoindolinone hydrochloride], in test [1], the JAK2 inhibition ratio is listed as ≥ 50%. Moreover, the “cell growth inhibition ratio” value in test [2] was ≥ 50%.
On to `CCN(CC)Cc1ccc2[nH]c(-c3cc(C(O)C(C)C)cc4c3C(=O)NC4)cc2c1` (centres unmarked) [Compound 555, 5-(1-Hydroxy-2-methylpropyl)-7-[1H-5-(diethylaminomethyl)indol-2-yl]isoindolinone hydrochloride], for which, in test [1], the JAK2 inhibition ratio is ≥ 50%. Moreover, the “cell growth inhibition ratio” value in test [2] was ≥ 50%.
In the case of `CCN(CC)Cc1ccc2[nH]c(-c3cc(CN(C)C)cc4c3C(=O)NC4)cc2c1` [Compound 504, 5-(Dimethylaminomethyl)-7-[1H-5-(diethylaminomethyl)indol-2-yl)i soindolinone], the JAK2 inhibition ratio in test [1] was ≥ 50%. In addition, in test [2], the “cell growth inhibition ratio” value is ≥ 50%.
On to `CN(C)Cc1cc(-c2cc3cc(CN4CCCCC4)ccc3[nH]2)c2c(c1O)CNC2=O` [Compound 562, 4-Hydroxy-5-(dimethylaminomethyl)-7-[1H-5-(piperidinomethyl)indol-2-yl]isoindolinone dihydrochloride], for which the JAK2 inhibition ratio in test [1] is ≥ 50%. Moreover, in test [2], the “cell growth inhibition ratio” value was ≥ 50%.
For the molecule `Cc1cc(O)ccc1-c1cc2c(c(-c3cc4cc(CN5CCCCC5)ccc4[nH]3)c1)C(=O)NC2` [Compound 550, 5-(4-Hydroxy-2-methylphenyl)-7-[1H-5-(piperidinomethyl)indol-2-yl]isoindolinone], the JAK2 inhibition ratio in test [1] is ≥ 50%. Besides, the “cell growth inhibition ratio” value in test [2] is ≥ 50%.
On to `CN(C)Cc1cc2c(c(-c3cc4cc(CN5CCN(CCO)CC5)ccc4[nH]3)c1)C(=O)NC2` [Compound 483, 5-(Dimethylaminomethyl)-7-{1H-5-[4-(2-hydroxyethyl)piperazin-1-ylmethyl]indol-2-yl}isoindolinone trihydrochloride], for which, in test [1], the JAK2 inhibition ratio is ≥ 50%. In addition, the “cell growth inhibition ratio” value in test [2] was ≥ 50%.
`CC(C)Nc1cc2c(c(-c3cc4cc(CN5CCCCC5)ccc4[nH]3)c1)C(=O)NC2` [Compound 509, 5-(2-Propylamino)-7-[1H-5-(piperidinomethyl)indol-2-yl)isoindoli none dihydrochloride]: the JAK2 inhibition ratio in test [1] is on record as ≥ 50%. Also, the “cell growth inhibition ratio” value in test [2] was ≥ 50%.
